Test results reported in US20110212853A1, “NOVEL DIAGNOSTIC METHOD” (PROBIODRUG AG, priority 2010, published 2011).

Assays:
[1] = test system: thioglycollate-induced peritonitis; test: mMCP-1 N1pE/mMCP-1 ratio and monocyte infiltration in mice treated with thioglycollate and QCI; format: in vivo, mouse; settings: QCI intraperitoneal 30 minutes before thioglycollate
Method: To capture mouse MCP-1, commercially available polyclonal antiserum rabbit anti mJE (Peprotech, Hamburg, Germany) as capture antibody which specifically binds mouse MCP-1 was diluted in PBS to 500 ng/ml and immobilized in polystyrene 96-well microtitre plates over 4-7 nights at 4° C. Thereafter, blocking occurred for 2 hours at room temperature with ELISA Blocker (Thermo Fisher Scientific, Waltham, USA). For preparation of the standard curve recombinant mMCP-1 was incubated with mouse Glutaminyl Cyclase (QC) in order to obtain mMCP-1 N1pE. The recombinant mMCP-1 N1pE standard peptide was serially diluted with ELISA Blocker from 1950 pg/ml down to 19.5 pg/ml and added to the wells in duplicate. Two wells filled with ELISA Blocker represent the standard curve value 0 pg/ml. After an incubation period of 2 hours at room temperature, plates were washed at least three times with TBS-T. For detection of mMCP-1 N1pE, the MCP-1 N1pE antibody clone 348-2C9 together with HRP-conjugated anti mouse antibody were both diluted in ELISA Blocker to final concentrations of 500 ng/ml. […] Absorption at 450/540 nm was determined by a Tecan Sunrise plate reader. […]
Thioglycollate was injected intraperitoneal in mice. […] Infiltrated monocytes were counted by FACS analysis via double staining of 7/4 and Ly6G antigens.

[2] = test system: Normal Human Dermal Fibroblasts (NHDF); test: hMCP-1 N1pE/hMCP-1 ratio by ELISA in OSM+IL1β stimulated NHDF treated with QCI; format: cell-based; settings: 10 μM QCI
Method: To capture human MCP-1, commercially available polyclonal antiserum goat anti-hMCP1-AF (R&D Systems, Minneapolis, USA) as capture antibody which specifically binds human MCP-1 was diluted in PBS to 250 ng/ml and immobilized in polystyrene 96-well microtitre plates overnight at 4° C. Thereafter, blocking occurred for 2 hours at room temperature with ELISA Blocker (Thermo Fisher Scientific, Waltham, USA). For preparation of the standard curve recombinant hMCP-1 was incubated with recombinant human Glutaminyl Cyclase (QC) in order to obtain hMCP-1 N1pE. The recombinant hMCP-1 N1pE standard peptide was serially diluted with ELISA Blocker from 1000 pg/ml down to 15.63 pg/ml and added to the wells in duplicate. Two wells filled with ELISA Blocker represent the standard curve value 0 pg/ml. After an incubation period of 2 hours at room temperature, plates were washed at least three times with TBS-T. For detection of hMCP-1 N1pE, the MCP-1 N1pE antibody clone 348-2C9 together with HRP-conjugated anti mouse antibody were both diluted in blocking buffer to final concentrations of 500 ng/ml. For detection of hMCP-1, the antibody mouse anti hMCP-1 (Peprotech, Hamburg, Germany) together with HRP-conjugated anti mouse antibody were also both diluted in blocking buffer to final concentrations of 500 ng/ml. The detection antibody/conjugate solutions were incubated for 2 hours at room temperature. […] Absorption at 450/540 nm was determined by a Tecan Sunrise plate reader.
Quantitative detection of hMCP-1 and hMCP-1 N1pE occurred according to the protocol in […]. […] The cell culture supernatants were analyzed at different time points in order to examine time dependency of hMCP-1 and hMCP-1 N1pE secretion. […]
NHDF have been stimulated with 10 ng/ml OSM, IL1β and simultaneously treated with or without 10 μM QCI for 6 days. […] In order to examine the influence of QCI on hMCP-1 and hMCP-1 N1pE level, the cell culture supernatants were analyzed at different time points according to the ELISA protocol in Example 7.

A549 cells = test: hMCP-1 N1pE/hMCP-1 ratio by ELISA in TNFα+IL1β stimulated A549 treated with QCI; format: cell-based, human; settings: 24 h, different QCI concentrations
Method: To capture human MCP-1, commercially available polyclonal antiserum goat anti-hMCP1-AF (R&D Systems, Minneapolis, USA) as capture antibody which specifically binds human MCP-1 was diluted in PBS to 250 ng/ml and immobilized in polystyrene 96-well microtitre plates overnight at 4° C. Thereafter, blocking occurred for 2 hours at room temperature with ELISA Blocker (Thermo Fisher Scientific, Waltham, USA). For preparation of the standard curve recombinant hMCP-1 was incubated with recombinant human Glutaminyl Cyclase (QC) in order to obtain hMCP-1 N1pE. The recombinant hMCP-1 N1pE standard peptide was serially diluted with ELISA Blocker from 1000 pg/ml down to 15.63 pg/ml and added to the wells in duplicate. Two wells filled with ELISA Blocker represent the standard curve value 0 pg/ml. After an incubation period of 2 hours at room temperature, plates were washed at least three times with TBS-T. For detection of hMCP-1 N1pE, the MCP-1 N1pE antibody clone 348-2C9 together with HRP-conjugated anti mouse antibody were both diluted in blocking buffer to final concentrations of 500 ng/ml. For detection of hMCP-1, the antibody mouse anti hMCP-1 (Peprotech, Hamburg, Germany) together with HRP-conjugated anti mouse antibody were also both diluted in blocking buffer to final concentrations of 500 ng/ml. The detection antibody/conjugate solutions were incubated for 2 hours at room temperature. Following several washes with TBS-T a colour reaction with commercially available HRP substrate TMB (SureBlue Reserve TMB Microwell Peroxidase Substrate (1-component), KPL, Gaithersburg, USA) was performed (30 minutes incubation at room temperature in the dark) and subsequently stopped by the addition of 1,2N H2SO4. Absorption at 450/540 nm was determined by a Tecan Sunrise plate reader.
A549 cells were stimulated for 24 h with 10 ng/ml TNFα and IL1β. Furthermore, QCI was applied in different concentrations to the cells. After 24 h cell culture supernatants were analyzed according to the protocol in Example 7.

RAW 264.7 cells = test: Western Blot of mMCP-1 N1pE and total mMCP-1 in RAW 264.7 cell culture supernatant; format: cell-based, mouse; settings: RAW 264.7 supernatants, different QCI
Method: Stimulation of RAW 264.7 and inhibitor application occurred according to Example 9. For Western Blot analysis, proteins of cell culture supernatants were separated by application to a SDS gel electrophoresis. Separated proteins were electrically transferred to nitrocellulose membranes. Membranes were blocked for one hour with TBST-M (=TBST+5% skimmed milk) at room temperature with gentle shaking. Antibody incubation occurred over night at 4° C. on a rocking platform with the detection antibody for total mMCP-1 (Rat anti mouse MCP-1, R&D Systems) diluted to 1 μg/ml in equal volumes of TBST-M or the detection antibody for mMCP-1 N1pE (clone 332-4B8), respectively. Secondary anti-mouse and anti-rat antibody conjugated with horseradish peroxidase were used for signal detection, following standard procedures.

With COc1ccc(NC(=S)NCCCn2ccnc2)cc1OC.Cl [QCI, 1-(3-(1H-imidazol-1-yl)propyl)-3-(3,4-dimethoxyphenyl)thiourea hydrochloride] the “number of infiltrating monocytes to the peritoneum” value ([1]; FACS, FIG. 23B) was “decreased number”, the “mMCP-1 N1pE/mMCP-1 ratio in peritoneal lavage fluid” value ([1]; lavage after 4 h) was “dose dependent reduction” and the “hMCP-1 N1pE level after 1-2 days of OSM+IL1β stimulation” value ([2]; 1-2 days) was “below the limit of quantitation”. For the same compound, the “hMCP-1 N1pE level” value ([2]; OSM+IL1β) was “decreased”, the “ratio of hMCP-1 N1pE/hMCP-1” value ([2]; OSM+IL1β) was “about 0,35” and the “amount of hMCP-1 N1pE” value (A549 cells) was “reduced by QCI in a concentration dependent manner”. For the same compound, the “amount of total hMCP-1” value (A549 cells) was “nearly unaffected”, the “ratio of hMCP-1 N1pE/hMCP-1” value (A549 cells) was “decreases with increasing inhibitor concentrations” and the “Western Blot signal of mMCP-1 N1pE” value (RAW 264.7 cells; FIG. 22A) was “concentration dependent”. The “Western Blot signal intensity of total mMCP-1” value (RAW 264.7 cells; FIG. 22B) was “no change”.
